From patent publication US20120058172A1, “PLANT EXTRACTS FOR USE IN BRAIN MODULATION” (Intermed Discovery GmbH, priority 2006, published 2012)

Test system: mouse
Assay: Marble burying test in the mouse
Assay type: in vivo
Settings: for Number of marbles covered by sawdust, mean ± s.e.m.: 15 mice per group
Text: More preferably, psychotropic activity can be tested using the Marble Burying Test in the mouse. The method, which detects anxiolytic/tranquillizing activity, follows that described by Broekkamp et al (Eur. J. Pharmacol., 126, 223-229, 1986). The principle of the test is that mice exposed to novel objects (marbles) will bury them in the sawdust floor covering. Anxiolytics decrease the number of marbles buried at non-sedative doses. For the experiment, mice (Male Rj: NMRI mice, weighing 20-30 g (max. range per experiment=5 g) at the beginning of the experiments, obtained from Elevage Janvier, 53940 Le Genest-Saint-Isle, France) are individually placed in transparent plastic cages (33×21×18 cm) with 5 cm of sawdust on the floor. 25 marbles are grouped in the centre of the cage. The cage is covered with an inverted plastic cage. Each test cage, together with the marbles, is impregnated with mouse odor before-hand by leaving 10 mice in the cage for 15 minutes. These mice then play no further role in the experiment. The mice are treated with test substance intraperitoneally (i.p.) 30 min before the test. Administration volume: 10 ml/kg, different dosages are tested (e.g. 2 or more dosages selected from 1, 3, 10, 30 and 100 mg/kg). The test substance is tested for solubility by cold stirring of the highest intended dose for 10 minutes in physiological saline. If soluble, physiological saline serves as vehicle. If insoluble, the test substance is homogenized and dispersed using a mortar and a pestle in 0.2% hydroxypropylmethylcellulose (HPMC) in physiological saline which then serves as the vehicle. Unless indicated otherwise, doses are prepared W/V (stock) and then V/V (serial dilutions) for test substances in solution, and by separate weighings (W/V) for test substances in suspension. Preparations are made freshly for each day of administration and precautions are taken to preserve the homogeneity of suspensions (if applicable) during the period of administration. As control, vehicle is administered. The number of marbles covered by sawdust (2/3 or more) is then counted at the end of a 30 minute test. 15 mice are studied per group. The test is performed blind. Each test substance is evaluated at 3 doses, administered i.p. 30 minutes before the test, and compared with a vehicle control group. Fluoxetine (32 mg/kg i.p.), administered under the same experimental conditions, is used as reference substance. Each experiment therefore includes 5 groups. Data are analyzed by comparing treated groups with vehicle control using unpaired Student's t tests, using commercial software (Microsoft Excel®, SAS® Version 8.2, GB Stat® Version 6.5). With this test system, with compounds of the formula I a decrease of the number of marbles buried and thus an anxiolytic effect can be found, preferably a significant effect (p<0.01) by an i.p. dosage in the range from 1 to 100 mg/kg.
The test is performed as described above.

SMILES	Number of marbles covered by sawdust, % change from control (Vehicle) (32 mg/kg i.p. −30 min) [%]	Number of marbles covered by sawdust, mean ± s.e.m. (32 mg/kg i.p. −30 min)	Number of marbles covered by sawdust, % change from control (Vehicle) (1 mg/kg i.p. −30 min) [%]	Number of marbles covered by sawdust, mean ± s.e.m. (1 mg/kg i.p. −30 min) [NS]	Number of marbles covered by sawdust, % change from control (Vehicle) (3 mg/kg i.p. −30 min) [%]	Number of marbles covered by sawdust, mean ± s.e.m. (3 mg/kg i.p. −30 min) [NS]	Number of marbles covered by sawdust, % change from control (Vehicle) (10 mg/kg i.p. −30 min) [%]	Number of marbles covered by sawdust, mean ± s.e.m. (10 mg/kg i.p. −30 min)
CNCCC(Oc1ccc(C(F)(F)F)cc1)c1ccccc1 (centres unmarked) [FLUOXETINE, Fluoxetine, reference compound]	−100	0.0 ± 0.0	–	–	–	–	–	–
CC(C)C[C@@H](c1c(O)c(C=O)c(O)c(C=O)c1O)[C@@]1(C)CC[C@@H]2[C@@H]1[C@H]1[C@@H](CC[C@@]2(C)O)C1(C)C [Macrocarpale A, Macrocarpal A]	–	–	−5	15.7 ± 2.5	−37	10.4 ± 2.3	−53	7.7 ± 2.4
